From patent publication US7626044B2, “Triptolide derivatives and their uses” (priority 2002, dated 2009)
Values joined by “and” are separate entries in the source; they are usually repeats but may differ in a detail not shown here. Equal entries are not always repeated. Where two headings read alike, the source gives them in different places.

Legend:
[1] = system: MCF-7 (human breast cancer cell); experiment: Tumor cell proliferation, MCF-7; assay type: cell-based; settings: read-out: Inhibitory effect on tumor cell proliferation IC50
[2] = system: MKN-28 (human gastric cancer); experiment: Tumor cell proliferation, MKN-28; assay type: cell-based; settings: read-out: Inhibitory effect on tumor cell proliferation IC50
mice = experiment: Acute toxicity (LD50) test in mice, intraperitoneal injection; assay type: in vivo, mouse; settings: single intraperitoneal injection
Procedure: Mice were single administered with LLDT-8 by intraperitoneal injection, and observed for clinical signs of toxicity immediately and the following 14 days. Necropsy was performed on all animals that died and on all survivors at the end of the 2-week study. Death was seen from the next day after treatment and reached a peak at the 2-4 day. All gross pathological changes should be recorded for each animal. There was no gender difference in survival.
LLDT-8 is much less toxic than its parent compound, […].

[3] = system: P-388 (murine lymphoma cell); experiment: Tumor cell proliferation, P-388; assay type: cell-based; settings: read-out: Inhibitory effect on tumor cell proliferation IC50
[4] = system: ConA-stimulated lymphocytes; experiment: IL-2 production from ConA-stimulated lymphocytes (ELISA); assay type: cell-based, mouse; settings: without drug 3724.4
Procedure: Mice were sacrificed by cervical dislocation, and spleens were collected under sterile conditions then teased through a nylon mesh. Erythrocytes were lysed. Cells were washed and resuspended at 5×10^6/ml in RPMI-1640 media with 10% FBS.
1 ml of spleen cells were treated with or without ConA (5 μg/ml) or Sac (1:10000) and in the presence or absence of drugs in a final volume of 2 ml.
After 24 h culture at 37° C., 5% CO2 in a humidified incubator, cell-free supernatant was collected and frozen at −20° C. for ELISA.
IL-2, IL-12p40, IL-10, and IFN-γ levels were determined by Enzyme Linked Immuno Sorbance Assay (ELISA). TMB was taken as the enzyme substrate. The absorbance was measured at 450/570 nm by BioRad microplate reader. The amount of cytokines in sample supernatants were calculated based on standard curve using standard murine cytokines (rIL-2, rIL-12, rIL-10, and rIFN-γ).

[5] = system: anti-SRBC specific antibodies production by B lymphocytes; assay type: in vivo, mouse; settings: ICR mice
[6] = system: C57BL/6 skin allograft on BALB/c mice; experiment: Murine skin allograft transplantation; assay type: in vivo, mouse; settings: C57BL/6 skin to BALB/c mice; daily i.p.; preliminary results
Procedure: Full-thickness tail skin was aseptically harvested from adult C57BL/6 mice.
The skin allografts were transplanted onto the flank of adult recipient BALB/c mice.
Engrafted mice were administered LLDT-8 daily or, as a control, phosphate-buffered saline (PBS) by intraperitoneal (i.p.) injection.

[7] = system: HO-8910 (human ovary cancer cells); experiment: Tumor cell proliferation, HO-8910; assay type: cell-based; settings: read-out: Inhibitory effect on tumor cell proliferation IC50
T lymphocyte = experiment: ConA induced T-lymphocyte proliferation ([3H]thymidine); assay type: cell-based, mouse
Procedure: (§1) Mice were sacrificed by cervical dislocation, and spleens were collected under sterile conditions then teased through a nylon mesh. Erythrocytes were lysed. Cells were washed and resuspended at 5×10^6/ml in RPMI-1640 media containing 10% FBS. For one 96 well plate assay, 100 pt of cells, 50 μl of sample and 50 μl of ConA/LPS were added into each well with the final volume 200 μl. The control wells were set up with 50 μl of RPMI-1640 media instead of ConA/LPS.
(§2) Plates were incubated for 48 h (ConA) or 60 h (LPS), respectively, at 37° C., 5% CO2 in a humidified incubator. In the last 8 h of incubation, 25 μl (1.9×10^10 Bq) of [^3H]thymidine was added. After plates were incubated for 48 h, the plates (ConA) were stored at −20° C., then after another 12 h, the plates (LPS) were stored at −20° C.
(§3) At the end of incubation, pulsed cells were harvested on a glass filter using a cell harvester ([…]96®, TOMTEC) and allowed to dry. Incorporation of radioactive thymidine was determined by using liquid Scintillation and Luminescence Counters (MicroBeta Trilux®, PerkinElmer).

lymphocyte = experiment: MTT cytotoxic assay; assay type: cell-based, mouse; settings: mouse spleen cells, 48 hours, MTT
Procedure: Mice were sacrificed by cervical dislocation, and spleens were collected under sterile conditions then teased through a nylon mesh. Erythrocytes were lysed. Cells were washed and resuspended at 5×10^6/ml in RPMI-1640 media supplemented with 10% FBS.
For one 96 well plate assay, 90 μl of cells, 45 μl of sample and 45 μl of RPMI-1640 media with 10% FBS were added into each well with the final volume 180 μl. The negative control wells (containing 90 μl of RPMI-1640 media with 10% FBS and 90 pt of cells), blank control (180 μl of RPMI-1640 media with 10% FBS) were also performed. Incubate plate for 48 hours at 37° C., 5% CO2 in a humidified incubator. 18 μl of MTT solution (5 mg/ml) was added for 6-7 h.
90 μl of MTT lysis solution was added to each well followed by a further incubation at 37° C. for 6-7 h. And the absorbance was measured at 570 nm using a plate reader.

B lymphocyte = experiment: LPS induced B-lymphocyte proliferation ([3H]thymidine); assay type: cell-based, mouse
Procedure: as §1, §2, §3

Structure (SMILES): CC(C)[C@]12O[C@H]1[C@@H]1O[C@]13[C@]1(O[C@H]1C[C@@]1(O)C4=C(CC[C@]31C)C(=O)OC4)[C@@H]2O [LLDT-8, (5R)-5-hydroxytriptolide]
- IC50 [1]: 350 nM
- IC50 [2]: 390 nM
- LD50 95% confidence limits (mice; mice): 7.7 to 11.3 mg/kg
- LD50 (mice; mice, 14 days, Bliss' method): 9.3 mg/kg
- pathological changes in tissues by gross necropsy in survivors at day 15 (mice): No significant pathological changes
- IC50 [3]: 80 nM
- IL-2 production by lymphocytes stimulated with ConA, Mean Value ([4]; 0.3 nM): 3857.2 pg/mL
- IL-2 production by lymphocytes stimulated with ConA, Mean Value ([4]; 3 nM): 3494.2 pg/mL
- IL-2 production by lymphocytes stimulated with ConA, Mean Value ([4]; 30 nM): 2872.7 pg/mL
- QHS OD value ([5]; Table 11, i.p. 4 times, dosage 0.04 mg/kg, control 0.208): 0.175
- C3 ([5]; Table 11, i.p. 4 times, dosage 0.04 mg/kg, control 16.8): 19.5 μg/10 μl
- Body weight ([5]; Table 11, i.p. 4 times, dosage 0.04 mg/kg, control 23.5): 23.0 g
- Thymus ([5]; Table 11, i.p. 4 times, dosage 0.04 mg/kg, control 39.6): 32.1 mg
- Spleen ([5]; Table 11, i.p. 4 times, dosage 0.04 mg/kg, control 66.4): 74.8 mg/10 g
- Total IgG ([5]; Table 11, i.p. 4 times, dosage 0.04 mg/kg, control 185.5): 176.6 μg/10 μl
- QHS OD value ([5]; Table 11, i.p. 4 times, dosage 0.2 mg/kg, control 0.208): 0.162
- C3 ([5]; Table 11, i.p. 4 times, dosage 0.2 mg/kg, control 16.8): 19.7 μg/10 μl
- Body weight ([5]; Table 11, i.p. 4 times, dosage 0.2 mg/kg, control 23.5): 23.1 g
- Thymus ([5]; Table 11, i.p. 4 times, dosage 0.2 mg/kg, control 39.6): 36.9 mg
- Spleen ([5]; Table 11, i.p. 4 times, dosage 0.2 mg/kg, control 66.4): 76.3 mg/10 g
- Total IgG ([5]; Table 11, i.p. 4 times, dosage 0.2 mg/kg, control 185.5): 165.9 μg/10 μl
- QHS OD value ([5]; Table 11, i.p. 4 times, dosage 1 mg/kg, control 0.208): 0.158
- C3 ([5]; Table 11, i.p. 4 times, dosage 1 mg/kg, control 16.8): 19.4 μg/10 μl
- Body weight ([5]; Table 11, i.p. 4 times, dosage 1 mg/kg, control 23.5): 22.3 g
- Thymus ([5]; Table 11, i.p. 4 times, dosage 1 mg/kg, control 39.6): 36.6 mg
- Spleen ([5]; Table 11, i.p. 4 times, dosage 1 mg/kg, control 66.4): 59.6 mg/10 g
- Total IgG ([5]; Table 11, i.p. 4 times, dosage 1 mg/kg, control 185.5): 182.9 μg/10 μl
- QHS OD value ([5]; Table 12, p.o. 4 times, dosage 0.04 mg/kg, control 0.38): 0.23
- C3 ([5]; Table 12, p.o. 4 times, dosage 0.04 mg/kg, control 7.9): 6.7 μg/10 μl
- Body weight ([5]; Table 12, p.o. 4 times, dosage 0.04 mg/kg, control 23.4): 23.0 g
- Thymus ([5]; Table 12, p.o. 4 times, dosage 0.04 mg/kg, control 28.8): 28.7 mg
- Spleen ([5]; Table 12, p.o. 4 times, dosage 0.04 mg/kg, control 55.7): 69.0 mg/10 g
- Total IgG ([5]; Table 12, p.o. 4 times, dosage 0.04 mg/kg, control 117): 123 μg/10 μl
- QHS OD value ([5]; Table 12, p.o. 4 times, dosage 0.2 mg/kg, control 0.38): 0.34
- C3 ([5]; Table 12, p.o. 4 times, dosage 0.2 mg/kg, control 7.9): 7.9 μg/10 μl
- Body weight ([5]; Table 12, p.o. 4 times, dosage 0.2 mg/kg, control 23.4): 24.0 g
- Thymus ([5]; Table 12, p.o. 4 times, dosage 0.2 mg/kg, control 28.8): 36.6 mg
- Spleen ([5]; Table 12, p.o. 4 times, dosage 0.2 mg/kg, control 55.7): 61.6 mg/10 g
- Total IgG ([5]; Table 12, p.o. 4 times, dosage 0.2 mg/kg, control 117): 116 μg/10 μl
- QHS OD value ([5]; Table 12, p.o. 4 times, dosage 1 mg/kg, control 0.38): 0.24
- C3 ([5]; Table 12, p.o. 4 times, dosage 1 mg/kg, control 7.9): 6.8 μg/10 μl
- Body weight ([5]; Table 12, p.o. 4 times, dosage 1 mg/kg, control 23.4): 23.0 g
- Thymus ([5]; Table 12, p.o. 4 times, dosage 1 mg/kg, control 28.8): 32.5 mg
- Spleen ([5]; Table 12, p.o. 4 times, dosage 1 mg/kg, control 55.7): 63.7 mg/10 g
- Total IgG ([5]; Table 12, p.o. 4 times, dosage 1 mg/kg, control 117): 118 μg/10 μl
- murine allograft survival [6]: prolonged murine allograft survival
- IC50 [7]: 220 nM
- ED50 for inhibiting T lymphocyte proliferation induced by ConA (T lymphocyte; 48 h): 0.05812 µg/mL
- EC50 (T lymphocyte; 48 h, read-out: ED50 for inhibiting T lymphocyte proliferation induced by ConA): 155 nM
- inhibitory activity weaker than CsA (T lymphocyte proliferation) (T lymphocyte; compared with CsA): about 5.4 fold
- IC50 (concentration required to reduce the viability of cells by 50%) (lymphocyte): 0.0782 µg/mL
- IC50 (lymphocyte; read-out: IC50 (concentration required to reduce the viability of cells by 50%)): 208 nM and 200 nM
- ED50 for inhibiting B lymphocyte proliferation induced by LPS (B lymphocyte; 60 h): 0.0598 µg/mL
- EC50 (B lymphocyte; 60 h, read-out: ED50 for inhibiting B lymphocyte proliferation induced by LPS): 159 nM
- more potent inhibitory activity than CsA (B lymphocyte proliferation) (B lymphocyte; compared with CsA): about 4.3 fold
